# Measured values reported in US7687237B2, “Method of identification and quantification of proteins, isoforms of the angiotensin I converting enzyme” (Universidade Federal de Sao Paulo - UNIFESP, priority 2002, dated 2010).
# Tests used:
# [1] = test system: SHR rats; assay: SHR rats treated with enalapril: blood pressure; type: in vivo, rat; conditions: isogenic hypertensive SHR rats treated with enalapril
# [2] = test system: angiotensin I converting enzyme (ACE); assay: ACE enzymatic activity (Hipuril-His-Leu substrate, Friedland and Silverstein method) in essential hypertensive patients after oral captopril; type: in vivo, human; conditions: captopril 50 to 150 mg orally
# Description: Three days study, each day, each six hours collect duration; samples of blood and urine were collected at the final basal period (1 hour), after they reach the supine position, as well as at the end of the study (after 6 hours). […] The enzymatic activity using Hipuril-His-Leu substrate was measured by Friedland and Silverstein method (1976).
# [3] = test system: enzyme of 63 kDa molecular weight which breaks the Phe8-Arg9 BK bond; conditions: enzyme contained in urine, described by Ryan et al 1978; cited from earlier work
compound,measurement,setting,value
CCOC(=O)[C@H](CCc1ccccc1)N[C@@H](C)C(=O)N1CCC[C@H]1C(=O)O [enalapril],blood pressure of treated SHR rats,[1],pressure under control
C[C@H](CS)C(=O)N1CCC[C@H]1C(=O)O [captopril],inhibition on the enzyme activity,"[2]; essential (light and/or mild) arterial hypertensive patients, one-day dose, between 1 and 2 hours after administration, Hipuril-His-Leu substrate",50%
same,enzyme activity at the end of the studies,"[2]; essential arterial hypertensive patients, end of the study (after 6 hours)",returning to the basal levels
BPP9a,inhibition of the 63 kDa urine enzyme,[3],not inhibited
